According to patent US6380185B1, “N-substituted benzoyl indoles as estrogenic agents” (American Home Products Corporation, priority 1999, dated 2002):

Tests used:
[1] = biological target: T1, estrogen receptor (ER) (Homo sapiens, UniProt P03372); experiment: Estrogen Receptor Binding/Competition Assay ([3H]17β-estradiol displacement)
T1 construct: expressed in transfected cells; host or cells: CHO cells (ribosome-free cytosol)
T1 sequence (P03372 1-595): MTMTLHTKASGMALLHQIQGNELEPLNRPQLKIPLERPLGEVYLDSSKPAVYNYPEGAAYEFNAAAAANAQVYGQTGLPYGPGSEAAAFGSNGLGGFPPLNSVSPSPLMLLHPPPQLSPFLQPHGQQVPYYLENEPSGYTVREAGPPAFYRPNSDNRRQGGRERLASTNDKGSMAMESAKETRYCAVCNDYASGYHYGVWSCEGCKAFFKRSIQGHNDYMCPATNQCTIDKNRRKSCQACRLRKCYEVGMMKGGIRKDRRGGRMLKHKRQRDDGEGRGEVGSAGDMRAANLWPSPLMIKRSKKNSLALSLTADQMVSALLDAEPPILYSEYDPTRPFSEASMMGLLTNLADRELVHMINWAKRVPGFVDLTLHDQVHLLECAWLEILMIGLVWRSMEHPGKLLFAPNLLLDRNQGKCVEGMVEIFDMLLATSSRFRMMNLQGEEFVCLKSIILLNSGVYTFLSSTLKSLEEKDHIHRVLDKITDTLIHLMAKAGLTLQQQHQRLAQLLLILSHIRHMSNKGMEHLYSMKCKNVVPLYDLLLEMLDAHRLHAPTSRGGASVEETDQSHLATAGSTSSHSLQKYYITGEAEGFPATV

[2] = biological target: T2, estrogen receptor (Homo sapiens, UniProt P03372); experiment: Transfection Assay; type: cell-based
T2 sequence (P03372 1-595): T1 sequence (P03372 1-595)

Row | Structure (SMILES) | IC50 [1] [µM] | Transfection Assay % Control ([2]; Concentration 1 × 10^−6 M + 1 nM estradiol) [%] | Transfection Assay % Control ([2]; Concentration 1 × 10^−6 M, compound alone) [%] | melting point [°C]
1 | Cc1c(-c2ccc(O)cc2)n(C(=O)c2ccc(OCCN3CCCCC3)cc2)c2ccc(O)cc12 [Example No. 2, [5-Hydroxy-2-(4-hydroxy-phenyl)-3-methyl-indol-1-yl][4-(2-piperidin-1-yl-ethoxy)-phenyl]-methanone] | 0.2 | 13 | 0 | 127 to 130
2 | Cc1c(-c2ccc(OCc3ccccc3)cc2)n(C(=O)c2ccc(OCCN3CCCCC3)cc2)c2ccc(OCc3ccccc3)cc12 [compound 1, [5-Benzyloxy-2-(4-benzyloxy-phenyl)-3-methyl-indol-1-yl]-[4-(2-piperidin-1-yl-ethoxy)-phenyl]-methanone] | – | – | – | 48 to 51
